Reference: patent US7649095B2, “Piperidine derivatives and agent comprising the derivative as active ingredient” (Ono Pharmaceutical Co., Ltd., priority 2003, dated 2010)
Counter-ions that a name gives are not always drawn.

Target: PDE4
Assay: In vitro enzyme assay: PDE4 inhibitory activity
Format: biochemical
Conditions: PDE4 enzyme solution from U937 cells (originated from human monocyte), 3H-cAMP substrate, room temperature 30 minutes
Procedure: U937 cells (originated from human monocyte) were cultured in PRMI 1640 medium containing 10% fetal bovine serum. The U937 cells were harvested and homogenized in 20 mM Tris-HCl buffer [pH 8.0, containing PMSF (1 mM), leupeptin (1 μg/ml) and pepstatin A (1 μg/ml)]. After centrifugation (at 15,000 rpm for 10 minutes), the supernatant was recovered and filtered through a 0.45 μm filter. The sample was applied to MonoQ (manufactured by Pharmacia, strong anion exchange resin) column and eluted by a density gradient of 0 to 0.8 M NaCl. Fractions from which the PDE activity was disappeared by 10 μM rolipram (a PDE4-selective inhibitor) were recovered and used as the enzyme solution for the measurement of PDE4 inhibitory activity.
The enzyme activity was measured by the following method. […] To an alumina column (100 μl), 50 μl of the supernatant was applied, eluted with 80 μl of 0.005 N hydrochloric acid, and radioactivity of the eluate was measured.
PDE4 inhibitory activity ratio of the compound of the present invention was calculated by the following equation: PDE4 inhibitory activity ratio (%)=(1−radioactivity in the presence of the compound of the present invention/radioactivity in the absence of the compound of the present invention)×100 […]

SMILES: COc1ccc(C2(C#N)CCN(CC(=O)NO)CC2)cc1OC1CCCC1 [Example 3, N-hydroxy-2-(4-(3-cyclopentyloxy-4-methoxyphenyl)-4-cyanopiperidin-1-yl)acetamide·hydrochloride]
- IC50: 0.03 nM
